Source: patent US20170209499A1, “Propolis and Extracts Thereof for the Treatment of Skin Cancers and Improvement of Skin Health” (Manuka Health New Zealand Limited, priority 2014, published 2017)

Experiments:
[1] = test system: human basal carcinoma cell line TE 354.T; assay: MTT cell proliferation assay, human basal cell carcinoma cell line TE 354.T; assay type: cell-based; conditions: for Mean OD: MTT Optical Density at 570 nm
Method: (§1) The three human skin cancer cell lines were: • 1) Human Melanoma cell line (A-2058). • 2) Human Epidermoid (Squamous) Carcinoma cell line (A-431). • 3) Human Basal Cell Carcinoma cell line (TE 354.T).
(§2) The cell lines were revived from cryostorage and cultured in the presence of the test and reference samples. An MIT assay was then performed on the cultures to determine the effect of the samples on the cell viability and proliferation. The percentage standard error of the mean was assessed and extreme outliers were removed if the SEM%>15. Preliminary statistical significance was assessed with an independent Student t-test at α<0.05 (with and without outliers). The methodology was based on the procedures reported by: • Ahn, N G, Campbell J S (1993). […] Proc Natl Acad Sci. 90: 5143-5147. • Galan-Cobo, A et al (2014). Functional inhibition of aquaporin-3 with a gold-based compound induces blockage of cell proliferation. J Cellul. Physiol. 229: 1787-1801. • Roomi, M W, Kalinovsky, J et al (2013) Effect of a nutrient mixture on matrix metalloproteinase-9 dimers in various human cancer cell lines. Inter 3 Oncol. 44: 936-942. • Huang, H C, Lin, M K et al (2013). Cardenolides and bufadienolide glycosides from Kalanchoe tubiflora and evaluation of cytotoxicity. Planta Medica. 79: 1362-1369. • Tilli, C M L J, Stavast-Kooy, A J W et al (2003). The garlic-derived organosulfur component ajoene decreases basal cell carcinoma tumor size by inducing apoptosis. Arch Dermatol Res. 295: 117-123.
(§3) • 1. Human melanoma cell line (A-2058, ATCC CRL11147) was obtained from ATCC, Bethesda, Md., USA. • 2. Human squamous (epidermoid) carcinoma cell line (A-431, ATCC CRL1555) was obtained from ATCC, Bethesda, Md. USA. • 3. Human basal cell carcinoma cell line (TE 354.T, ATCC CRL7762) was obtained from ATCC, Bethesda, Md., USA. • 4. Dulbecco's Modified Eagle's Medium (DMEM) was obtained from GIBCO (12100-038). 10% Foetal Bovine Serum (FBS), 100 U/ml Penicillin and […] Streptomycin were added before use. • 5. Penicillin-streptomycin solution, stored at −20° C. consisting of 10000 units/ml penicillin and 10 mg/ml streptomycin in 0.9% NaCl was obtained from Sigma (#P-0781). • 6. Trypsin-EDTA solution consisting of 0.25% Trypsin/EDTA was obtained from Invitrogen (#15400054). • 7. Phosphate buffered saline (PBS) was prepared in-house. • 8. Hanks Balanced Salt Solution (HBSS), stored at 4° C. was obtained from GIBCO (#14185-052). • 9. Foetal Bovine Serum (FBS) stored at −20° C. was obtained from GIBCO (#10091-148). • 10. MTT Reagent, 100 mg/vial, was obtained from Sigma (M-2128) and then dissolved in PBS at 10 mg/ml and stored at −20° C. A 5 mg/ml MTT solution was prepared in PBS and stored at 4° C. as the working solution. • 11. MU lysis buffer: 10% sodium dodecyl sulphate (SDS)/45% Dimethyl Formamide was prepared by dissolving 20 g SDS in 100 ml of double-distilled water (DDW), and then adding 90 ml of Dimethyl Formamide to the solution. The pH was adjusted to 4.7 by glacial acetic acid, and DDW added up to a final volume of 200 ml. • 12. 5-Fluorouracil (5-FU) was supplied by Sigma (F-6627). Three working solutions were prepared at 19.5 μg/ml. 6.5 μg/ml and 1.95 μg/ml dissolved in 15% Ethanol/HBSS. Final concentrations were 1.95 μg/ml (15 μM), 0.65 μg/ml (5 μM) and 0.195 μg/ml (1.5 μM).
(§4) • 1. Each of the cell lines was revived from cryostorage. • 2. Following initial propagation using the media described above (Characterisation of Test System, and Medium Preparation), the cell culture was subcultured using trypsin-EDTA. The media was removed and 5ml of the trypsin-EDTA solution added and incubated at 37° C. for 5 min or until all the cells had detached. The trypsin was neutralised by the addition of an equal volume of the relevant medium and centrifugation of the suspension at 300 g (1200 rpm) for 5 min at 4° C. • 3. […]

[2] = test system: human epidermoid cancer cell line A-431; assay: MTT cell proliferation assay, human epidermoid (squamous) carcinoma cell line A-431; assay type: cell-based; conditions: for Mean OD: MTT Optical Density at 570 nm
Method: as §1, §2, §3, §4

Structure (SMILES): O=c1[nH]cc(F)c(=O)[nH]1 [5-fluorouracil, reference compound]
- Mean OD ([1]; 0.195 μg/ml): 0.2548
- Mean OD ([1]; 0.65 μg/ml): 0.2656
- Mean OD ([1]; 1.95 μg/ml): 0.2553
- inhibition at 0.195 µg/mL ([1]; Homo sapiens, 0.195 μg/ml, 24 hr incubation, vs cells only): 5.49%
- inhibition at 0.65 µg/mL ([1]; Homo sapiens, 0.65 μg/ml, 24 hr incubation, vs cells only): 1.49%
- inhibition at 1.95 µg/mL ([1]; Homo sapiens, 1.95 μg/ml, 24 hr incubation, vs cells only): 5.31%
- % inhibition ([2]; A-431, 0.195 μg/ml, 24 hr incubation, vs cells only): weak and statistically insignificant inhibitor
- Mean OD ([2]; A-431, 0.195 μg/ml): 0.2364
- % inhibition ([2]; A-431, 0.65 μg/ml, 24 hr incubation, vs cells only): weak and statistically insignificant inhibitor
- Mean OD ([2]; A-431, 0.65 μg/ml): 0.2416
- % inhibition ([2]; A-431, 1.95 μg/ml, 24 hr incubation, vs cells only): weak and statistically insignificant inhibitor
- Mean OD ([2]; A-431, 1.95 μg/ml): 0.2561
- inhibition at 0.195 µg/mL ([2]; Homo sapiens, A-431, 0.195 μg/ml, 24 hr incubation, vs cells only): 9.79%
- inhibition at 0.65 µg/mL ([2]; Homo sapiens, A-431, 0.65 μg/ml, 24 hr incubation, vs cells only): 7.8%
- inhibition at 1.95 µg/mL ([2]; Homo sapiens, A-431, 1.95 μg/ml, 24 hr incubation, vs cells only): 2.26%
